The source of these data is patent US20240217951A1, “PCSK9 INHIBITORS AND METHODS OF USE THEREOF” (AstraZeneca AB, priority 2022, published 2024).

In assay [1] the target is T1, PCSK9 (Homo sapiens, UniProt Q8NBP7, G670E/V474I). Put plainly: Assay 3 - PCSK9 LDL-C uptake assay in HepG2 cells. The class given is cell-based. Also on record: TEV cleavage site (C); His6 (C); host or cells: added to HepG2 cells (ATCC #HB-8065). The note with it: 125 nM PCSK9, pHrodo Red-LDL, read-out: Assay 3 LDL uptake potency. An outline of the steps:
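HepG2 cells seeded 24 h, then given compound (half-log series, top 10 μM) plus PCSK9 at 125 nM final for 24 h at 37 °C. pHrodo Red-LDL (6 μg/mL) added; uptake imaged at 4 h and 24 h. Signal normalized between DMSO and 100 nM evolocumab controls, four-parameter logistic fit.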

Assay [2] concerns the target GSK3β (Glycogen synthase kinase-3 beta) (Homo sapiens, UniProt P49841). Put plainly: Assay 6 - GSK3β assay (ThermoFisher Z-Lyte). The class given is biochemical. The note with it: geometric mean; ATP Conc: 10 μM; read-out: Assay 6 (GSK3β FRET-Z-Lyte CR) GMean IC50 (μM) ATP Conc: 10. An outline of the steps:
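Z-Lyte fluorescence kinase assay with 0.22-0.92 ng GSK3β and 2 μM Ser/Thr 09 peptide in 50 mM HEPES pH 7.5, 10 mM MgCl2, 1 mM EGTA, 0.01% BRIJ-35. Kinase reaction 60 min at room temperature, then 60 min development. 10-point 3-fold titration from 10 μM in 1% DMSO, fitted to a sigmoidal dose-response curve.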

The target in assay [3] is T1, PCSK9. Nature of the assay: biochemical.

T1 sequence (Q8NBP7 with tags, fused parts or gaps V474I/G670E): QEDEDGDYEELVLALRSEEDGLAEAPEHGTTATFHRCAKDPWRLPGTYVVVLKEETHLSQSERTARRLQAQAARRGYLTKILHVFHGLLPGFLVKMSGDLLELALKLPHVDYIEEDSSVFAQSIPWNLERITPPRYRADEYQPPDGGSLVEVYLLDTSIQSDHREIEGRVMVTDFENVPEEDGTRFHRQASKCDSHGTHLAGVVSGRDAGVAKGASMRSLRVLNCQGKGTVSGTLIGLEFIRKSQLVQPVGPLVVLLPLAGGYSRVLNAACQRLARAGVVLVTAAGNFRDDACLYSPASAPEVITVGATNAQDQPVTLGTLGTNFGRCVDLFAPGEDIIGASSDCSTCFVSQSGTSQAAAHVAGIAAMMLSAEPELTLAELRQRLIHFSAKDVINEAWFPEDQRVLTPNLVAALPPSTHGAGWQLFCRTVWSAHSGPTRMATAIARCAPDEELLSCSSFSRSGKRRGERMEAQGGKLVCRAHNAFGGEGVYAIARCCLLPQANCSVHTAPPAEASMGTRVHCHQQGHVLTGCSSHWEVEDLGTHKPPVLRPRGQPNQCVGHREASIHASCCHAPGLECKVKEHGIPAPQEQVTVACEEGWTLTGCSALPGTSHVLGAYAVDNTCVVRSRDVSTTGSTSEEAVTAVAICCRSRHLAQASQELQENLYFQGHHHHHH
GSK3β (Glycogen synthase kinase-3 beta), sequence (P49841 whole entry): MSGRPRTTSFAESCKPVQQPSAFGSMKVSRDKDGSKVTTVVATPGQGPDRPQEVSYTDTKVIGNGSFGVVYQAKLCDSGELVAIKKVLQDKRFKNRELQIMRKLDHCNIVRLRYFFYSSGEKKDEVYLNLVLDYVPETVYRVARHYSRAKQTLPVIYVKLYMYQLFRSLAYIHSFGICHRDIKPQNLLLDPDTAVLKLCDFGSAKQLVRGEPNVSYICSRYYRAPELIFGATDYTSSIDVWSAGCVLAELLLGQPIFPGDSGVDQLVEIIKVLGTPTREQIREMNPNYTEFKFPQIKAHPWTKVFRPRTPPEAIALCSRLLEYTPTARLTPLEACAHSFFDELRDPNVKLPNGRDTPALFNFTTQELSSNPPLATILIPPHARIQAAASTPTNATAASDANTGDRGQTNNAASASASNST

Regarding `Cc1cccn(-c2ccc(N[C@H]3CC[C@H](Nc4cnc(Cl)cn4)C3)nc2)c1=O` [Example 24, 6′-(((1S,3S)-3-((5-Chloropyrazin-2-yl)amino)cyclopentyl)amino)-3-methyl-2H-[1,3′-bipyridin]-2-one], the EC50 on PCSK9 [1] stood at 400 nM. For the same molecule, the half-inhibitory concentration (IC50) in assay [2] was > 10 µM; against PCSK9 [3] it was 4.3 nM.
For the molecule `Cn1c(=O)n(-c2ccc(N[C@H]3CC[C@H](Nc4cnc(Cl)cn4)C3)nc2)c2ccccc21` [Example 27, 1-(6-(((1S,3S)-3-((5-Chloropyrazin-2-yl)amino)cyclopentyl)amino)pyridin-3-yl)-3-methyl-1,3-dihydro-2H-benzo[d]imidazol-2-one], the EC50 at PCSK9 [1] stood at 100 nM. Moreover, the IC50 was > 10 µM in assay [2] and 1.7 nM at PCSK9 [3].
For `O=c1ccc(-c2ccc(F)cc2)cn1-c1ccc(N[C@H]2CC[C@H](Nc3cnc(Cl)cn3)C2)nc1` [Example 32, 6′-(((1S,3S)-3-((5-Chloropyrazin-2-yl)amino)cyclopentyl)amino)-5-(4-fluorophenyl)-2H-[1,3′-bipyridin]-2-one], at PCSK9 [1], the EC50 came out at 200 nM. Further, the IC50 in assay [2] was > 10 µM; against PCSK9 [3] it was 7.9 nM.
In the same order, the values of `O=C(O)c1ccc(=O)n(-c2ccc(N[C@H]3CC[C@H](Nc4cnc(Cl)cn4)C3)nc2)c1` [Example 33, 6′-(((1S,3S)-3-((5-Chloropyrazin-2-yl)amino)cyclopentyl)amino)-2-oxo-2H-[1,3′-bipyridine]-5-carboxylic acid] are 100 nM, > 10 µM and 12 nM.
For the molecule `O=c1ccc2ccccc2n1-c1ccc(N[C@H]2CC[C@H](Nc3cnc(Cl)cn3)C2)nc1` [Example 35, 1-(6-(((1S,3S)-3-((5-Chloropyrazin-2-yl)amino)cyclopentyl)amino)pyridin-3-yl)quinolin-2 (1H)-one], the EC50 on PCSK9 [1] was found to be 100 nM. Besides, the IC50 in assay [2] is > 10 µM; on PCSK9 [3], 2 nM.
For the molecule `COc1cccn(-c2ccc(N[C@H]3CC[C@H](Nc4cnc(C)cn4)C3)nc2)c1=O` [Example 36, 3-Methoxy-6′-(((1S,3S)-3-((5-methylpyrazin-2-yl)amino)cyclopentyl)amino)-2H-[1,3′-bipyridin]-2-one], the EC50 at PCSK9 [1] stood at 100 nM. In addition, the concentration for half-maximal inhibition (IC50) is > 10 µM in assay [2] and 4.1 nM against PCSK9 [3].
Turning to `Cc1cnc(N[C@H]2CC[C@H](Nc3ccc(-n4c(=O)ccc5cccnc54)cn3)C2)cn1` [Example 37, 1-(6-(((1S,3S)-3-((5-Methylpyrazin-2-yl)amino)cyclopentyl)amino)pyridin-3-yl)-1,8-naphthyridin-2(1 H)-one], the EC50 on PCSK9 [1] stood at 200 nM. Moreover, the values for the IC50 (in assay [2]; on PCSK9 [3]) were > 10 µM and 6.5 nM, respectively.
In the same order, the values of `Cc1cnc(N[C@H]2CC[C@H](Nc3ccc(-n4c(=O)n(C)c5cccnc54)cn3)C2)cn1` [Example 42, 1-Methyl-3-(6-(((1S,3S)-3-((5-methylpyrazin-2-yl)amino)cyclopentyl)amino)pyridin-3-yl)-1,3-dihydro-2H-imidazo[4,5-b]pyridin-2-one] are 200 nM, > 10 µM and 5.8 nM.
In the case of `Cc1cnc(N[C@H]2CC[C@H](Nc3ccc(-n4cccc(C)c4=O)cn3)C2)cn1` [Example 44, 3-Methyl-6′-(((1S,3S)-3-((5-methylpyrazin-2-yl)amino)cyclopentyl)amino)-2H-[1,3′-bipyridin]-2-one], the EC50 at PCSK9 [1] is 300 nM. Besides, the IC50 is > 10 µM in assay [2] and 5.5 nM against PCSK9 [3].
As to `Cc1cnc(N[C@H]2CC[C@H](Nc3ccc(-n4c(=O)n(C)c5ccccc54)cn3)C2)cn1` [Example 45, 1-Methyl-3-(6-(((1S,3S)-3-((5-methylpyrazin-2-yl)amino)cyclopentyl)amino)pyridin-3-yl)-1,3-dihydro-2H-benzo[d]imidazol-2-one], the EC50 on PCSK9 [1] came to 200 nM. The IC50 in assay [2] was > 10 µM; against PCSK9 [3] it was 1.5 nM.
For `Cc1cnc(N[C@H]2CC[C@H](Nc3ccc(-n4c(=O)[nH]c5ccccc54)cn3)C2)cn1` [Example 46, 1-(6-(((1S,3S)-3-((5-Methylpyrazin-2-yl)amino)cyclopentyl)amino)pyridin-3-yl)-1,3-dihydro-2H-benzo[d]imidazol-2-one] the same measures were 700 nM, > 10 µM and 3 nM.
In the same order, the values of `Cc1cnc(N[C@H]2CC[C@H](Nc3ccc(-n4cccc(Cl)c4=O)cn3)C2)cn1` [Example 47, 3-Chloro-6′-(((1S,3S)-3-((5-methylpyrazin-2-yl)amino)cyclopentyl)amino)-2H-[1,3′-bipyridin]-2-one] are 100 nM, > 10 µM and 2.1 nM.
As for `Cn1c(=O)n(-c2ccc(N[C@H]3CC[C@H](Nc4cnc(OC(F)F)cn4)C3)nc2)c2ccccc21` [Example 82, 1-(6-(((1S,3S)-3-((5-(Difluoromethoxy)pyrazin-2-yl)amino)cyclopentyl)amino)pyridin-3-yl)-3-methyl-1,3-dihydro-2H-benzo[d]imidazol-2-one], at PCSK9 [1], the EC50 came to 200 nM. For the same molecule, the values for the IC50 (in assay [2]; at PCSK9 [3]) were > 10 µM and 2.5 nM, respectively.
In the case of `COc1cccn(-c2ccc(N[C@H]3CC[C@H](Nc4cnc(OC(F)F)cn4)C3)nc2)c1=O` [Example 94, 6′-(((1S,3S)-3-((5-(Difluoromethoxy)pyrazin-2-yl)amino)cyclopentyl)amino)-3-methoxy-2H-[1,3′-bipyridin]-2-one], the EC50 on PCSK9 [1] was determined as 300 nM. The IC50 in assay [2] was > 10 µM; on PCSK9 [3], 7.7 nM.
As for `Cc1cnc(N[C@H]2CC[C@H](Nc3ccc(-n4cccc(C#N)c4=O)cn3)C2)cn1` [Example 103, 6′-(((1S,3S)-3-((5-Methylpyrazin-2-yl)amino)cyclopentyl)amino)-2-oxo-2H-[1,3′-bipyridine]-3-carbonitrile], the EC50 at PCSK9 [1] was determined as 200 nM. Besides, the IC50 was > 10 µM in assay [2] and 5.7 nM at PCSK9 [3].
For `COc1cccn(-c2ccc(N[C@H]3CC[C@H](Nc4cnc(C5CC5)cn4)C3)nc2)c1=O` [Example 106, 6′-(((1S,3S)-3-((5-Cyclopropylpyrazin-2-yl)amino)cyclopentyl)amino)-3-methoxy-2H-[1,3′-bipyridin]-2-one], the EC50 at PCSK9 [1] was 200 nM. Besides, the figures for the IC50 (in assay [2]; at PCSK9 [3]) were > 10 µM and 4.5 nM, respectively.
Regarding `COc1ccnn(-c2ccc(N[C@H]3CC[C@H](Nc4cnc(C)cn4)C3)nc2)c1=O` [Example 226, 4-Methoxy-2-(6-(((1S,3S)-3-((5-methylpyrazin-2-yl)amino)cyclopentyl)amino)pyridin-3-yl)pyridazin-3 (2H)-one], the EC50 on PCSK9 [1] came out at 200 nM. The IC50 in assay [2] is > 10 µM; at PCSK9 [3] it was 4 nM.

The IC50 is the concentration needed to halve the response being measured.
